The target of the assay is PARP7 (Homo sapiens (Human), UniProt Q7Z3E1). Description: TR-FRET assay: displacement of biotinylated Probe A from the TIPARP active site (Enzymatic Assay for Inhibition of PARP7). Type of assay: binding. The note with it: TIPARP 6 nM, Probe A 2 nM, 25° C. As to the method: Example A. Enzymatic Assay for Inhibition of PARP7
Displacement of Probe A, a biotinylated probe binding to the TIPARP active site, was measured using a time-resolved fluorescence energy transfer (TR-FRET) assay. 20 nL of a dose response curve of each test compound was spotted in black 384-well polystyrene proxiplates (Perkin Elmer) using a Mosquito (TTP Labtech). Reactions were performed in a 8 μl volume by adding 6 μL of TIPARP and Probe A in assay buffer (20 mM HEPES pH=8, 100 mM NaCl, 0.1% bovine serum albumin, 2 mM DTT and 0.002% Tween20), incubating with test compound at 25° C. for 30 min, then adding 2 μL of ULight-anti 6×His and LANCE Eu-W1024 labeled streptavidin (Perkin Elmer). The final concentrations of TIPARP and Probe A were 6 nM and 2 nM, respectively. The final concentration of ULight-anti 6×His and LANCE Eu-W1024 labeled streptavidin were 4 nM and 0.25 nM, respectively. Reactions were incubated at 25° C. for an additional 30 min, then read on an Envision platereader equipped with a LANCE/DELFIA top mirror (Perkin Elmer) using excitation of 320 nm and emission of 615 nm and […] with a […]. The ratio of the 665/615 nm emission were calculated for each well to determine the amount of complex of TIPARP and Probe Ain each well. Control wells containing a negative control of 0.25% DMSO vehicle or a positive control of 100 μM 5-(5-(piperidin-4-yloxy)isoindolin-2-yl)-4-(trifluoromethyl)pyridazin-3(2H)-one were used to calculate the % inhibition as described below:
[formula] where TRFcmpd is the TR-FRET ratio from the compound treated well, TRFmin is the TR-FRET ratio from the 5-(5-(piperidin-4-yloxy)isoindolin-2-yl)-4-(trifluoromethyl)pyridazin-3(2H)-one—treated positive control well and TRFmax is the TR-FRET ratio from the DMSO-treated negative control well. The % inhibition values were plotted as a function of compound concentration and the following 4-parameter fit was applied to derive the IC50 values:
[formula] where top and bottom are normally allowed to float, but may be fixed at 100 or 0 respectively in a 3-parameter fit. The Hill Coefficient is normally allowed to float but may also be fixed at 1 in a 3-parameter fit. Y is the % inhibition and X is the compound concentration. Synthesis of Probe A
For orientation: Time-resolved FRET reads energy transfer from a long-lived donor to a nearby acceptor.

IC50 data for 23 molecules are collected here from US11691969B2, “Pyridazinones as PARP7 inhibtors” (Ribon Therapeutics, Inc., priority 2019, dated 2023).

PARP7, sequence (Q7Z3E1 whole entry): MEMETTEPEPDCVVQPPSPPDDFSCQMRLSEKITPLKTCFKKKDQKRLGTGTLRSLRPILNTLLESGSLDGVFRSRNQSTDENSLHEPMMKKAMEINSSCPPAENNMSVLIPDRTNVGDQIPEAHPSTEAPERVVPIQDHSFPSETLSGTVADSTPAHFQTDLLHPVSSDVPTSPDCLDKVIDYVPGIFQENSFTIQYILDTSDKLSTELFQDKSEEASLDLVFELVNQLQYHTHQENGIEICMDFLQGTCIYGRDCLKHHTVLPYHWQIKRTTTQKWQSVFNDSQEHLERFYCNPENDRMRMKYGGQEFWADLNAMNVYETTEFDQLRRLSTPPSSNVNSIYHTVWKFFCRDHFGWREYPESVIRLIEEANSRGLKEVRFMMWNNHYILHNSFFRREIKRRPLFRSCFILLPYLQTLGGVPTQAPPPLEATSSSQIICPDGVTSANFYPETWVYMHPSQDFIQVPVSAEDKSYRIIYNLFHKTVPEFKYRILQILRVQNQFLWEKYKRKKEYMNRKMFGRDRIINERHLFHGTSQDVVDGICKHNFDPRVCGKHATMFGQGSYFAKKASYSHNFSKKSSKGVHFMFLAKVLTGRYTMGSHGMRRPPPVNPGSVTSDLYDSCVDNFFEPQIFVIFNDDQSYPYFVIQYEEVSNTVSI

As usually defined, the IC50 is the concentration at which inhibition is half-maximal. Low readings indicate inhibition by little substance, high ones a need for much substance. The molecule `C[C@@H](CO[C@@H]1CCN(C2CCN(c3cnc(C(F)(F)F)cn3)CC2)C1=O)Oc1cn[nH]c(=O)c1C(F)(F)F` [Example 31B, 5-(((S)-1-(((R)-2-oxo-1-(1-(5-(trifluoromethyl)pyrazin-2-yl)piperidin-4-yl)pyrrolidin-3-yl)oxy)propan-2-yl)oxy)-4-(trifluoromethyl)pyridazin-3(2H)-one] had an IC50 of 100 to 1000 nM. The result for `C[C@@H](CO[C@H]1CCN(C2CCN(c3ncc(C(F)(F)F)cn3)CC2)C1=O)Nc1cn[nH]c(=O)c1C(F)(F)F` [Example 10A, 5-((S)-1-((S)-1-(1-(5-(trifluoromethyl)pyrimidin-2-yl)piperidin-4-yl)-2-oxopyrrolidin-3-yloxy)propan-2-ylamino)-4-(trifluoromethyl)pyridazin-3(2H)-one] reads 100 to 1000 nM; that for `C[C@@H](COC1CCN(C2CCN(c3ncc(C(F)(F)F)cn3)CC2)C1)Nc1cn[nH]c(=O)c1C(F)(F)F` (stereo partly drawn) [Example 21, 4-(trifluoromethyl)-5-(((2S)-1-((1-(1-(5-(trifluoromethyl)pyrimidin-2-yl)piperidin-4-yl)pyrrolidin-3-yl)oxy)propan-2-yl)amino)pyridazin-3(2H)-one], 100 to 1000 nM. Then `C[C@@H](CO[C@H]1CCN(C2CCN(c3ncc(C(F)(F)F)cn3)CC2)C1=O)Oc1cn[nH]c(=O)c1C(F)(F)F` [Example 20A, 5-(((S)-1-(((S)-2-oxo-1-(1-(5-(trifluoromethyl)pyrimidin-2-yl)piperidin-4-yl)pyrrolidin-3-yl)oxy)propan-2-yl)oxy)-4-(trifluoromethyl)pyridazin-3(2H)-one], with under 100 nM; and `C[C@@H]1CN(C2CCN(c3ncc(C(F)(F)F)cn3)CC2)C(=O)[C@H]1OC[C@H](C)Nc1cn[nH]c(=O)c1C(F)(F)F` [Example 37A, 5-(((S)-1-(((3S,4R)-4-methyl-2-oxo-1-(1-(5-(trifluoromethyl)pyrimidin-2-yl)piperidin-4-yl)pyrrolidin-3-yl)oxy)propan-2-yl)amino)-4-(trifluoromethyl)pyridazin-3(2H)-one], with at least 1000 nM. The result for `C[C@@H](CO[C@@H]1CCN([C@H]2CCN(c3ncc(C(F)(F)F)cn3)C[C@@H]2O)C1=O)Nc1cn[nH]c(=O)c1C(F)(F)F` [Example 58, 5-(((S)-1-(((R)-1-((3S,4S)-3-hydroxy-1-(5-(trifluoromethyl)pyrimidin-2-yl)piperidin-4-yl)-2-oxopyrrolidin-3-yl)oxy)propan-2-yl)amino)-4-(trifluoromethyl)pyridazin-3(2H)-one] reads under 100 nM; that for `COC[C@@H](CO[C@H]1CCN(C2CCN(c3ccc(C#N)cn3)CC2)C1=O)Nc1cn[nH]c(=O)c1C(F)(F)F` [Example 17A, 6-(4-((S)-3-((S)-3-methoxy-2-((6-oxo-5-(trifluoromethyl)-1,6-dihydropyridazin-4-yl)amino)propoxy)-2-oxopyrrolidin-1-yl)piperidin-1-yl)nicotinonitrile], 100 to 1000 nM; that for `C[C@@H](COC1CCN(C2CCN(c3ncc(C(F)F)cn3)CC2)C1=O)Oc1cn[nH]c(=O)c1C(F)(F)F` (stereo partly drawn) [Example 27, 5-(((2S)-1-((1-(1-(5-(difluoromethyl)pyrimidin-2-yl)piperidin-4-yl)-2-oxopyrrolidin-3-yl)oxy)propan-2-yl)oxy)-4-(trifluoromethyl)pyridazin-3(2H)-one], under 100 nM. Consider `C[C@@H](COC1CCN([C@@H]2CCN(c3ncc(C(F)(F)F)cn3)C[C@H]2O)C1=O)Oc1cn[nH]c(=O)c1C(F)(F)F` (stereo partly drawn) [Example 65, 5-(((2S)-1-((1-((3R,4R)-3-hydroxy-1-(5-(trifluoromethyl)pyrimidin-2-yl)piperidin-4-yl)-2-oxopyrrolidin-3-yl)oxy)propan-2-yl)oxy)-4-(trifluoromethyl)pyridazin-3(2H)-one], for which the IC50 was under 100 nM. The result for `C[C@@H](CO[C@@H]1CCN([C@H]2CCN(c3ncc(C(F)(F)F)cn3)C[C@H]2F)C1=O)Nc1cn[nH]c(=O)c1C(F)(F)F` (single isomer, unassigned) [Example 39B] reads under 100 nM; that for `C[C@@H](CO[C@@H]1CCN([C@H]2CCN(c3ccc(C#N)cn3)CC2(F)F)C1=O)Nc1cn[nH]c(=O)c1C(F)(F)F` (single isomer, unassigned) [Example 40B], under 100 nM.

The molecule `COC[C@@H](CO[C@@H]1CCN(C2CCN(c3ncc(C(F)(F)F)cn3)CC2)C1=O)Oc1cn[nH]c(=O)c1Br` [Example 56B, 4-Bromo-5-(((S)-1-methoxy-3-(((R)-2-oxo-1-(1-(5-(trifluoromethyl)pyrimidin-2-yl)piperidin-4-yl)pyrrolidin-3-yl)oxy)propan-2-yl)oxy)pyridazin-3(2H)-one] yielded an IC50 of under 100 nM. The result for `C[C@@H](CO[C@@H]1CCN(C2CCN(c3cnc(C(F)(F)F)cn3)CC2)C1=O)Oc1cn[nH]c(=O)c1Br` [Example 46B, 4-bromo-5-(((S)-1-(((R)-2-oxo-1-(1-(5-(trifluoromethyl)pyrazin-2-yl)piperidin-4-yl)pyrrolidin-3-yl)oxy)propan-2-yl)oxy)pyridazin-3(2H)-one] reads under 100 nM.

`C[C@@H](CN(C)C1CCN(C2CCN(c3ncc(C(F)(F)F)cn3)CC2)C1=O)Nc1cn[nH]c(=O)c1C(F)(F)F` (stereo partly drawn) [Example 29, 5-(((S)-1-(methyl(2-oxo-1-(1-(5-(trifluoromethyl)pyrimidin-2-yl)piperidin-4-yl)pyrrolidin-3-yl)amino)propan-2-yl)amino)-4-(trifluoromethyl)pyridazin-3(2H)-one]: the IC50 was under 100 nM. `C[C@@H](CO[C@@H]1CCN(C2CCN(c3ncc(C(F)(F)F)cn3)CC2)C1=O)Nc1cn[nH]c(=O)c1Br` [Example 32, 4-bromo-5-(((S)-1-(((R)-2-oxo-1-(1-(5-(trifluoromethyl)pyrimidin-2-yl)piperidin-4-yl)pyrrolidin-3-yl)oxy)propan-2-yl)amino)pyridazin-3(2H)-one] registered a concentration for half-maximal inhibition (IC50) of under 100 nM. The result for `C[C@@H](CO[C@H]1CCN(C2CCN(c3cnc(C(F)(F)F)cn3)CC2)C1=O)Oc1cn[nH]c(=O)c1C(F)(F)F` [Example 31A, 5-(((S)-1-(((S)-2-oxo-1-(1-(5-(trifluoromethyl)pyrazin-2-yl)piperidin-4-yl)pyrrolidin-3-yl)oxy)propan-2-yl)oxy)-4-(trifluoromethyl)pyridazin-3(2H)-one] reads under 100 nM; that for `C[C@@H](CO[C@H]1CCN(C2CCN(c3ncc(C(F)F)cn3)CC2)C1=O)Nc1cn[nH]c(=O)c1C(F)(F)F` [Example 15A, 5-(((S)-1-(((S)-1-(1-(5-(difluoromethyl)pyrimidin-2-yl)piperidin-4-yl)-2-oxopyrrolidin-3-yl)oxy)propan-2-yl)amino)-4-(trifluoromethyl)pyridazin-3(2H)-one], 100 to 1000 nM. Then `Cc1cnc(N2CCC(N3CC[C@@H](OC[C@H](C)Oc4cn[nH]c(=O)c4C(F)(F)F)C3=O)CC2)nc1` [Example 49B, 5-(((S)-1-(((R)-1-(1-(5-methylpyrimidin-2-yl)piperidin-4-yl)-2-oxopyrrolidin-3-yl)oxy)propan-2-yl)oxy)-4-(trifluoromethyl)pyridazin-3(2H)-one], with under 100 nM; and `C[C@@H](CO[C@@H]1CCN([C@@H]2CCN(c3ncc(C(F)(F)F)cn3)C[C@H]2F)C1=O)Nc1cn[nH]c(=O)c1C(F)(F)F` (single isomer, unassigned) [Example 38A], with under 100 nM; and `C[C@@H](O)[C@@H](CO[C@@H]1CCN(C2CCN(c3ncc(C(F)(F)F)cn3)CC2)C1=O)Nc1cn[nH]c(=O)c1C(F)(F)F` [Example 67, 5-(((2R,3R)-3-hydroxy-1-(((R)-2-oxo-1-(1-(5-(trifluoromethyl)pyrimidin-2-yl)piperidin-4-yl)pyrrolidin-3-yl)oxy)butan-2-yl)amino)-4-(trifluoromethyl)pyridazin-3(2H)-one], with under 100 nM.

The molecule `C[C@@H](CO[C@H]1CCN(C2CCN(c3ncc(C(F)(F)F)cn3)CC2O)C1=O)Oc1cn[nH]c(=O)c1C(F)(F)F` (stereo partly drawn) [Example 64A, Syn-5-(((2S)-1-(((3S)-1-(3-hydroxy-1-(5-(trifluoromethyl)pyrimidin-2-yl)piperidin-4-yl)-2-oxopyrrolidin-3-yl)oxy)propan-2-yl)oxy)-4-(trifluoromethyl)pyridazin-3(2H)-one] had an IC50 of under 100 nM. Then `C[C@@H](CO[C@@H]1CCN([C@@H]2CCN(c3ccc(C#N)cn3)CC2(F)F)C1=O)Nc1cn[nH]c(=O)c1C(F)(F)F` (single isomer, unassigned) [Example 40A], with under 100 nM; and `C[C@@H](CO[C@@H]1CCN(C2CCN(c3ccc(C#N)cn3)CC2)C1=O)Oc1cn[nH]c(=O)c1Br` [Example 48A], with under 100 nM.
